Results: patent US20140023611A1 (priority 2010, published 2014)

Key:
human NaP2b (SLC34A2) = biological target: T1, human NaP2b (SLC34A2) (Homo sapiens, UniProt O95436); experiment: Inhibition of NaP2b-mediated Pi (33P) uptake in transfected HEK293 cells, human NaP2b; type: cell-based; details: for IC50: read-out: pIC50 range for human NaP2b (converted)
T1 construct: host or cells: HEK293
T1 sequence (O95436 1-690): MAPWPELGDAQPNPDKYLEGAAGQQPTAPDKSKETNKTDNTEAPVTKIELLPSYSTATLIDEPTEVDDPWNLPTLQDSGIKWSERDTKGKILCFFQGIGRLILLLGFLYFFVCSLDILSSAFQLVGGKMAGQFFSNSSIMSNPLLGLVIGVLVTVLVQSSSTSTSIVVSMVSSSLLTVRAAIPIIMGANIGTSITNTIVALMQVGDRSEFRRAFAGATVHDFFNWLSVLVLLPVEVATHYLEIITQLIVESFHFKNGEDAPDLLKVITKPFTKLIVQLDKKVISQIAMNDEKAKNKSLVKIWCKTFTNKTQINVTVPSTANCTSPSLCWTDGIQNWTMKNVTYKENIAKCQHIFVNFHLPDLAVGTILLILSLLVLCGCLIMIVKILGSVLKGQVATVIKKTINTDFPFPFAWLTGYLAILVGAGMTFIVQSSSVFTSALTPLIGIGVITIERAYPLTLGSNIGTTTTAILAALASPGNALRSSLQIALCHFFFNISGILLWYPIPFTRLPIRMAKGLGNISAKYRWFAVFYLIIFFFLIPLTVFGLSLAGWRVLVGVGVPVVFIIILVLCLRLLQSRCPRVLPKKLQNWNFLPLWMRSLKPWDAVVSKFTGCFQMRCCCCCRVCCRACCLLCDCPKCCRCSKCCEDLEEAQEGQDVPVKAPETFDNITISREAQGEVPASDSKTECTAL
In short: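 Uptake of 33P-phosphate (100 uM KH2PO4 carrier, sodium vs choline buffer, pH 7.4) measured after 3-30 min at room temperature, with test compound at twelve concentrations from 0.1 nM to 30 uM in duplicate. Cells were HEK293 transfected with mutated human NaP2b (Thr insertion after 37, N39D) and treated with a PiT-silencing agent. pIC50 values from scintillation counts.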

[1] = Stability of compounds in simulated gastric fluid (SGF); type: in vitro ADME; details: simulated gastric fluid (3 mg/mL pepsin), incubation time 6 hr, relative to t=0
In short: (§1)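 Compounds at […] were incubated 3 or 6 hr in USP simulated gastric fluid with 3 mg/mL pepsin or simulated intestinal fluid with 3 mg/mL pancreatin. Remaining compound was quantified by HPLC-UV or HPLC-MS peak area % and reported as percent of the t=0 level in the same medium.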

[2] = Determination of compound Cmax and AUC after oral gavage (plasma LC-MS/MS); type: in vivo, Sprague-Dawley rats; details: Sprague-Dawley, rat, plasma, po, Structure (I) examples, Table 15, actual oral dose 3-15 mg/kg, plasma 0.5-4 h
In short: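 Plasma exposure measured by LC-MS/MS after acetonitrile precipitation with internal standard, quantified against a standard curve made in plasma. Compound given orally by gavage to Sprague-Dawley rats at nominal 2.5 or 10 mg/kg, with K2EDTA plasma sampled at 0.5, 1, 2 and 4 h.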

[3] = Stability of compounds in simulated intestinal fluid (SIF); type: in vitro ADME; details: simulated intestinal fluid (3 mg/mL pancreatin), incubation time 6 hr, relative to t=0
In short: as §1

rat NaP2b (SLC34A2) = biological target: T2, rat NaP2b (SLC34A2) (Rattus norvegicus, UniProt Q9JJ09); experiment: Inhibition of NaP2b-mediated Pi (33P) uptake in transfected HEK293 cells, rat NaP2b; type: cell-based; details: 33P Pi uptake, 0.1 mM phosphate, value given as pIC50 range
T2 construct: host or cells: HEK293
T2 sequence (Q9JJ09 1-695): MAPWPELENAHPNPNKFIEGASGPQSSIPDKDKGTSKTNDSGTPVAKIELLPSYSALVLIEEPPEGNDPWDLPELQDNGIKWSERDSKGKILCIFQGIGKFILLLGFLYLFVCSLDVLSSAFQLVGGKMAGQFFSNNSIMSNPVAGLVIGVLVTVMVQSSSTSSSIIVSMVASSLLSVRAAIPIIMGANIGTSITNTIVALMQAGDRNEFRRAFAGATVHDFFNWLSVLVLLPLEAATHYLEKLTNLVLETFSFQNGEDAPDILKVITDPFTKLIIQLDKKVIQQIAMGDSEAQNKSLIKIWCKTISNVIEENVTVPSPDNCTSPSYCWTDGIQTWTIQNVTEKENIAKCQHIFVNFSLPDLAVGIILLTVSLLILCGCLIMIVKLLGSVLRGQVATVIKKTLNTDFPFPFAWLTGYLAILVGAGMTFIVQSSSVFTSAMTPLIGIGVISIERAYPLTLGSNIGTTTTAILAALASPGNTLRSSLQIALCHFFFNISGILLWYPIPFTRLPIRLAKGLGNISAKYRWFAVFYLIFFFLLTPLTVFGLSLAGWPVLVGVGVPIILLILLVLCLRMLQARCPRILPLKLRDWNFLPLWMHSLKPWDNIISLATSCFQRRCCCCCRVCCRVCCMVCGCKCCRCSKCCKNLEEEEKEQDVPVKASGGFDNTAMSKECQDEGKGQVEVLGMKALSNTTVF
In short: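 The cells transiently expressed NaP2b after Lipofectamine transfection. Each compound was run in duplicate over twelve concentrations, 0.1 nM–30 uM.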

| Compound | IC50 (human NaP2b (SLC34A2)) [µM] | % remaining, SGF [1] [%] | AUC [2] [ng·h/mL] | Cmax [2] [ng/mL] | % remaining, SIF [3] | IC50 (rat NaP2b (SLC34A2)) [µM] | pIC50 range for human NaP2b (human NaP2b (SLC34A2); 33P Pi uptake, transfected HEK293 cells, 0.1 mM phosphate, value given as pIC50 range) | pIC50 range for rat Nap2b (rat NaP2b (SLC34A2)) |
| --- | --- | --- | --- | --- | --- | --- | --- | --- |
| O=C(O)c1cccc(SCc2cccc(C(=O)Nc3ccc(Cl)cc3-c3cc(C(=O)NCc4cccc(C(F)(F)F)c4)ccn3)c2)c1 [Example 8.25, 3-(3-(4-chloro-2-(4-(3-(trifluoromethyl)benzylcarbamoyl)pyridin-2-yl)phenylcarbamoyl)benzylthio)benzoic acid] | < 1 | >80 | > 50 | < 30 | >80% | 1 to 7.94 | – | – |
| CCN(CC)c1ccc(NC(=O)c2cccc(COCCOCCOCCOCCOCCOCCOC(=O)N(C)CCN3CCOCC3)c2)c(-c2cc(C(=O)NCc3cccc(C(F)(F)F)c3)ccn2)c1 [Example 170, 1-(3-(4-(diethylamino)-2-(4-(3-(trifluoromethyl)benzylcarbamoyl)pyridin-2-yl)phenylcarbamoyl)phenyl)-2,5,8,11,14,17-hexaoxanonadecan-19-yl methyl(2-morpholinoethyl)carbamate] | < 1 | >80 | – | – | 60-80% | 1 to 7.94 | – | – |
| CCN(CC)c1ccc(NC(=O)c2cccc(CCCOCCOCCOCCOCCC(=O)NC(CO)(CO)CO)c2)c(-c2cc(C(=O)NCc3cccc(C(F)(F)F)c3)ccn2)c1 [Example 281] | < 1 | >80 | < 10 | < 10 | 20-40% | < 1 | – | – |
| CN(CCCN1CCOCC1)C(=O)c1cccc(C(=O)Nc2ccc(N3CCCCC3)cc2-c2cc(C(=O)N[C@H]3CCCc4ccccc43)ccn2)c1 [Example 126, (S)—N1-methyl-N1-(3-morpholinopropyl)-N3-(4-(piperidin-1-yl)-2-(4-(1,2,3,4-tetrahydronaphthalen-1-ylcarbamoyl)pyridin-2-yl)phenyl)isophthalamide] | 1 to 7.94 | >80 | < 30 | < 10 | >80% | < 1 | – | – |
| CCN(CC)c1ccc(NC(=O)c2cccc(C(=O)N(C)CCN(CCOC)CCOCCOCCOCCOCCOCCOCCOC)c2)c(-c2cc(C(=O)N[C@H]3CCCc4ccccc43)ccn2)c1 [Example 328, (S)—N1-(4-(diethylamino)-2-(4-(1,2,3,4-tetrahydronaphthalen-1-ylcarbamoyl)pyridin-2-yl)phenyl)-N3-(23-(2-methoxyethyl)-2,5,8,11,14,17,20-heptaoxa-23-azapentacosan-25-yl)-N3-methylisophthalamide] | 1 to 7.94 | >80 | – | – | >80% | 1 to 7.94 | – | – |
| CCCN(CCC)c1ccc(NC(=O)c2cccc(C(=O)N(C)CCOCCOCCOCCC(=O)O)c2)c(-c2cc(C(=O)NCc3cccc(C(F)(F)F)c3)ccn2)c1 [Example 117] | 1 to 7.94 | >80 | – | – | >80% | 1 to 7.94 | – | – |
| COCCOCCOCCOCCOCCOCCOCCOCCNC(=O)CCOCCOCCOCCOCCCc1cccc(C(=O)Nc2ccc(N3CCCCC3)cc2-c2cc(C(=O)NCc3cccc(C(F)(F)F)c3)ccn2)c1 [Example 275] | 1 to 7.94 | >80 | – | – | >80% | 1 to 7.94 | – | – |
| CCN(CC)c1ccc(NC(=O)c2cccc(COCCOCCOCCOCCOCCOCCOC(=O)N(CCO)CCO)c2)c(-c2cc(C(=O)NCc3cccc(C(F)(F)F)c3)ccn2)c1 [Example 172, 1-(3-(4-(diethylamino)-2-(4-(3-(trifluoromethyl)benzylcarbamoyl)pyridin-2-yl)phenylcarbamoyl)phenyl)-2,5,8,11,14,17-hexaoxanonadecan-19-yl bis(2-hydroxyethyl)carbamate] | < 1 | >80 | – | – | >80% | 1 to 7.94 | – | – |
| 1-(3-(4-(diethylamino)-2-(4-(3-(trifluoromethyl)benzylcarbamoyl)pyridin-2-yl)phenylcarbamoyl)phenyl)-2,5,8,11,14,17-hexaoxanonadecan-19-yl 2,5,8,11,14,17,20-heptaoxadocosan-22-ylcarbamate [Example 174] | – | >80 | – | – | >80% | – | >6.0 | 5.1-6.0 |

More lines, now with the values ahead:

| IC50 (human NaP2b (SLC34A2)) [µM] | % remaining, SGF [1] [%] | AUC [2] [ng·h/mL] | Cmax [2] [ng/mL] | % remaining, SIF [3] | IC50 (rat NaP2b (SLC34A2)) [µM] | pIC50 range for human NaP2b (human NaP2b (SLC34A2); 33P Pi uptake, transfected HEK293 cells, 0.1 mM phosphate, value given as pIC50 range) | pIC50 range for rat Nap2b (rat NaP2b (SLC34A2)) | Compound |
| --- | --- | --- | --- | --- | --- | --- | --- | --- |
| < 1 | >80 | < 10 | < 10 | >80% | < 1 | – | – | COCCNC(=O)[C@H]1CCCN(C(=O)c2cccc(C(=O)Nc3ccc(N4CCCCC4)cc3-c3cc(C(=O)N[C@H]4CCCc5ccccc54)ccn3)c2)C1 [Example 254, 2-(2-(3-((S)-3-(2-methoxyethylcarbamoyl)piperidine-1-carbonyl)benzamido)-5-(piperidin-1-yl)phenyl)-N—((S)-1,2,3,4-tetrahydronaphthalen-1-yl)isonicotinamide] |
| < 1 | >80 | < 10 | < 10 | 20-40% | < 1 | – | – | CCN(CC)c1ccc(NC(=O)c2cccc(CSCCOCCOCCOCCOCCC(=O)NC(CO)(CO)CO)c2)c(-c2cc(C(=O)N[C@H]3CCCc4ccccc43)ccn2)c1 [Example 158, (S)-2-(5-(diethylamino)-2-(3-(20-hydroxy-19,19-bis(hydroxymethyl)-17-oxo-5,8,11,14-tetraoxa-2-thia-18-azaicosyl)benzamido)phenyl)-N-(1,2,3,4-tetrahydronaphthalen-1-yl)isonicotinamide] |
| < 1 | >80 | < 30 | < 10 | >80% | < 1 | – | – | CCN(CC)c1ccc(NC(=O)c2cccc(COCCOCCOCCOCCOCCOCCO)c2)c(-c2cc(C(=O)NCc3cccc(C(F)(F)F)c3)ccn2)c1 [Example 168, 2-(5-(diethylamino)-2-(3-(19-hydroxy-2,5,8,11,14,17-hexaoxanonadecyl)benzamido)phenyl)-N-(3-(trifluoromethyl)benzyl)isonicotinamide] |
| < 1 | >80 | < 10 | < 10 | 40-60% | < 1 | – | – | CCN(CC)c1ccc(NC(=O)c2cccc(CSCCOCCOCCOCCOCCC(=O)N(CCO)CCO)c2)c(-c2cc(C(=O)N[C@H]3CCCc4ccccc43)ccn2)c1 [Example 160, (S)-2-(5-(diethylamino)-2-(3-(20-hydroxy-18-(2-hydroxyethyl)-17-oxo-5,8,11,14-tetraoxa-2-thia-18-azaicosyl)benzamido)phenyl)-N-(1,2,3,4-tetrahydronaphthalen-1-yl)isonicotinamide] |
